Assay results as given in US20140024030A1, “PRESELECTION OF SUBJECTS FOR THERAPEUTIC TREATMENT WITH OXYGEN SENSITIVE AGENTS BASED IN HYPOXIC STATUS” (priority 2010, published 2014).
Where two headings read alike, the source gives them in different places.

Assays:
[1] = test system: advanced pancreatic cancer; details: Phase II, combination chemotherapy with Gemcitabine; cited from earlier work
[2] = test system: advanced pancreatic cancer; details: Phase III, combination with Gemcitabine; cited from earlier work
[3] = test system: HCT116 human colon carcinoma xenograft; assay: HCT116 xenograft model in nude mice (hypoxic tumor); assay type: in vivo; details: for efficacy at slowing tumor growth in HCT116 (high hypoxia) versus 786O (low hypoxia) tumors: comparison of HCT116 and 786O xenografts in nude mice
Procedure: Human tumor cell lines HCT116 (ATCC #CRL-247; Schroy P C, et al. Cancer 76: 201-209, 1995) and 786-O (ATCC #CRL-1932; Williams R D, et al. In Vitro 12: 623-627, 1976), were obtained from the American Type Culture Collection (Manassus, Va., USA) were cultured using routine methods until a sufficient number of cells were obtained for implantation. Studies were conducted on animals between 7 and 12 weeks of age at implantation. To implant HCT116 tumor cells into nude mice, the cells were trypsinized, washed in PBS and resuspended at a concentration of 75×10^6 cells/ml in McCoy's modified medium with 50% of BD Matrigel® Basement Membrane Matrix (BD Biosciences®, Bedford, Mass., USA). To implant 786-O tumor cells into nude mice, the cells were trypsinized as above, washed in PBS and resuspended at a concentration of 75×10^6 cells/ml in RPMI 1640 medium with 50% of BD Matrigel® Basement Membrane Matrix. Using a 27 gauge needle and 1 cc syringe, 0.1 ml of the cell suspension was injected into the corpus adiposum of nude mice. […] The location permits palpation and measurement of the tumors using external calipers. Tumor volumes (V) were calculated by caliper measurement of the width (W), length (L) and thickness (T) of tumors using the following formula: V=0.5236×(L×W×T).

[4] = test system: phosphorylated RPS6 (ribosomal protein S6); details: TSC1-deficient cells; cited from earlier work
[5] = test system: 786-O human renal carcinoma xenograft; assay: 786-O xenograft model in nude mice (low hypoxia tumor); assay type: in vivo
Procedure: Human tumor cell lines HCT116 (ATCC #CRL-247; Schroy P C, et al. Cancer 76: 201-209, 1995) and 786-O (ATCC #CRL-1932; Williams R D, et al. In Vitro 12: 623-627, 1976), were obtained from the American Type Culture Collection (Manassus, Va., USA) were cultured using routine methods until a sufficient number of cells were obtained for implantation. Studies were conducted on animals between 7 and 12 weeks of age at implantation. To implant HCT116 tumor cells into nude mice, the cells were trypsinized, washed in PBS and resuspended at a concentration of 75×10^6 cells/ml in McCoy's modified medium with 50% of BD Matrigel® Basement Membrane Matrix (BD Biosciences®, Bedford, Mass., USA). To implant 786-O tumor cells into nude mice, the cells were trypsinized as above, washed in PBS and resuspended at a concentration of 75×10^6 cells/ml in RPMI 1640 medium with 50% of BD Matrigel® Basement Membrane Matrix. Using a 27 gauge needle and 1 cc syringe, 0.1 ml of the cell suspension was injected into the corpus adiposum of nude mice. The corpus adiposum is a fat body located in the ventral abdominal vicera in the right quadrant of the abdomen at the juncture of the os coxae (pelvic bone) and the os femoris (femur). The location permits palpation and measurement of the tumors using external calipers. Tumor volumes (V) were calculated by caliper measurement of the width (W), length (L) and thickness (T) of tumors using the following formula: V=0.5236×(L×W×T). Animals were randomized into treatment groups so that the average tumor volumes of each group were similar at the start of dosing.
A tumor model in which the tumors have relatively high and low levels of LDH5, indicating high and low levels of hypoxia, using human tumor cell lines HCT116 and 786-O was established as set forth in the previous example.
As above, HCT116 and 786-O cells were cultured and implanted into nude mice using the methods in the previous example. Tumor growth was measured using calipers. Prior to treatment with the various agents, tumors were permitted to develop in vivo until they reached approximately 150 mm^3 in volume, which typically required 2-3 weeks following implantation. Animals were randomized into treatment groups so that the average tumor volumes of each group were similar at the start of dosing.
Tumor volume was monitored throughout the course of the study, until up to about 40 days from the date of tumor implantation. The exact number of days of the study depended on a number of factors including, for example, the number of days from implantation for the tumors to reach the desired volume.

[6] = test system: metastatic colorectal cancer (mCRC); details: cited from earlier work
[7] = test system: mCRC pretreated with 5-FU/irinotecan; details: cited from earlier work
[8] = test system: metastatic colorectal cancer (mCRC); details: cited from earlier work; remark: listed apart in the source
[9] = test system: pancreatic cancer; details: PTK787 orally daily with gemcitabine, cited from earlier work
[10] = test system: locally advanced, unresectable or metastatic pancreatic cancer; details: 100 mg cohort, arms: gemcitabine plus erlotinib vs gemcitabine alone, cited from earlier work
[11] = test system: hepatocellular carcinoma; details: cited from earlier work
[12] = test system: advanced renal cell carcinoma; details: cited from earlier work
[13] = test system: metastatic malignancies including renal cell carcinoma; details: cited from earlier work
[14] = test system: renal cell carcinoma cell lines; details: in vitro; cited from earlier work
[15] = test system: advanced renal cell carcinoma (RCC); details: cited from earlier work; for progression-free survival: P=0.0001
[16] = test system: renal cell carcinoma (RCC); details: 140 subjects with elevated LDH; temsirolimus vs interferon; log-rank p<0.005; cited from earlier work
[17] = test system: metastatic colorectal cancer; details: bevacizumab plus 5-FU/Leucovorin vs 5-FU/Leucovorin alone; not statistically significant; cited from earlier work
[18] = test system: metastatic colorectal cancer; details: arms: bevacizumab plus 5-FU/Leucovorin vs IFL regimen alone; cited from earlier work
[19] = test system: metastatic pancreatic cancer; details: cited from earlier work
[20] = test system: renal cancer; details: cited from earlier work; for patients with decreased tumor size: arms: bevacizumab and interferon-alpha vs interferon-alpha alone
[21] = test system: metastatic colorectal cancer; details: oxaliplatin stratum; arms: panitumumab, bevacizumab and chemotherapy vs bevacizumab and chemotherapy alone; cited from earlier work
[22] = test system: treatment-naïve RCC; details: final analysis; arms: sunitinib vs IFN-α; cited from earlier work
[23] = arms: temsirolimus alone vs interferon-alpha

Compound: CNC(=O)c1ccccc1Sc1ccc2c(/C=C/c3ccccn3)n[nH]c2c1 [Axitinib, N-Methyl-2-[[3-[(E)-2-pyridin-2-ylethenyl]-1H-indazol-6-yl]sulfanyl]benzamide]
- response [1]: good response
- survival rates versus Gemcitabine alone [2]: no evidence of improved survival rates

Compound: Cn1c(=O)n(-c2ccc(C(C)(C)C#N)cc2)c2c3cc(-c4cnc5ccccc5c4)ccc3ncc21 [BEZ235]
- efficacy at slowing tumor growth in HCT116 (high hypoxia) versus 786O (low hypoxia) tumors [3]: not found to work better in the tumors with a higher level of hypoxia
- levels of phosphorylated RPS6 [4]: significantly reduce the levels of phosphorylated RPS6

Compound: Clc1ccc(Nc2nnc(Cc3ccncc3)c3ccccc23)cc1 [PTK787, N-(4-chlorophenyl)-4-(pyridin-4-ylmethyl)phthalazin-1-amine]
- tumor growth versus control ([3]; 50 mg/kg 5x/week P.O., p=0.1209): reduced the growth of the tumor as compared to control
- efficacy at slowing tumor growth in HCT116 (high hypoxia) versus 786O (low hypoxia) tumors [3]: more effective at slowing tumor growth in tumors with high levels of hypoxia
- tumor burden versus control ([5]; 50 mg/kg 5x/week P.O., p=0.7805): no difference in tumor burden
- tumor burden versus control ([5]; XL765 study (FIG. 4B), 30 mg/kg 5x/week P.O., p=0.7682): no difference in tumor burden
- tumor burden versus control ([5]; erlotinib study (FIG. 5B), 1x/week P.O., p=0.8548): no difference in tumor burden
- PFS HR ([6]; CONFIRM 1 - High LDH, N 316, PTK787 1250 mg/day vs placebo): 0.61
- PFS HR ([6]; CONFIRM 1 - Low LDH, N 852): 0.93
- PFS HR ([7]; CONFIRM 2 - High LDH, N 250, PTK787 1250 mg/day vs placebo): 0.63
- PFS HR ([7]; CONFIRM 2 - Low LDH, N 605): 0.95
- PFS HR ([8]; All CONFIRM 1 & 2 High LDH Patients, N 566): 0.62
- PFS HR ([8]; All CONFIRM 1 & 2 Patients, N 2023): 0.82
- duration of stable disease [9]: 2-6 months
- patients with stable disease as the best response ([9]; six of eleven patients): 55%

Compound: COc1cc(Nc2nc3ccccc3nc2NS(=O)(=O)c2ccc(NC(=O)c3ccc(C)c(OC)c3)cc2)cc(OC)c1 [XL765]
- tumor growth rate versus control ([3]; XL765 30 mg/kg 5x/week P.O., p=0.009): reduced the growth rate of the tumor as compared to control
- efficacy at slowing tumor growth in HCT116 (high hypoxia) versus 786O (low hypoxia) tumors [3]: more effective at slowing tumor growth in tumors with high levels of hypoxia

Compound: Nc1ccn([C@@H]2O[C@H](CO)[C@@H](O)C2(F)F)c(=O)n1 [gemcitabine]
- progression free survival ([10]; p=0.006): 3.5 months
- survival ([10]; p=0.028): 6.0 months

Compound: CNC(=O)c1cc(Oc2ccc(NC(=O)Nc3ccc(Cl)c(C(F)(F)F)c3)cc2)ccn1 [sorafenib]
- efficacy at slowing tumor growth in HCT116 (high hypoxia) versus 786O (low hypoxia) tumors [3]: not found to work better in the tumors with a higher level of hypoxia
- disease control rate (DCR) ([11]; disease stabilization for at least 28 days): 43.48%
- time to progression HR ([11]; independent radiological review, sorafenib vs placebo, p=0.000007): 0.58
- overall survival HR ([11]; sorafenib 400 mg twice daily vs placebo, p=0.00058): 0.69
- median progression free survival ([12]; 769 patients, sorafenib 400 mg twice daily (N=384)): 167 days
- estimated improvement in overall survival vs placebo ([12]; as of 30 Nov. 2005, 367 deaths): 30%
- median PFS ([12]; patients with no prior IL-2 or interferon therapy (N=137)): 172 days
- median overall survival ([12]; sorafenib 400 mg twice daily, 367 deaths): 19.3 months
- progression free survival HR ([12]; sorafenib vs placebo, p<0.000001): 0.44
- progression free rate ([13]; at 24 weeks, p=0.0077): 50%
- progression free survival HR ([13]; sorafenib vs placebo): 0.29

Compound: CO[C@H]1C[C@@H]2CC[C@@H](C)[C@@](O)(O2)C(=O)C(=O)N2CCCC[C@H]2C(=O)O[C@H]([C@H](C)C[C@@H]2CC[C@@H](OC(=O)C(C)(CO)CO)[C@H](OC)C2)CC(=O)[C@H](C)/C=C(\C)[C@@H](O)[C@@H](OC)C(=O)[C@H](C)C[C@H](C)/C=C/C=C/C=C/1C [temsirolimus]
- efficacy at slowing tumor growth in HCT116 (high hypoxia) versus 786O (low hypoxia) tumors [3]: not found to work better in the tumors with a higher level of hypoxia
- activity of mTOR [14]: inhibited the activity of mTOR
- levels of HIF-1, HIF-2 alpha and VEGF [14]: reduced levels of the hypoxia-inducible factors HIF-1 and HIF-2 alpha, and the vascular endothelial growth factor
- progression-free survival [15, 23]: 5.5 months
- overall survival versus interferon-alpha alone ([15]; combination of temsirolimus and interferon-alpha): did not result in a significant increase in overall survival
- increase in median overall survival ([15]; temsirolimus compared to interferon-alpha): 49%
- survival [16]: 6.9 months

Compound: bevacizumab: recombinant humanized monoclonal IgG1 antibody that binds to and inhibits human vascular endothelial growth factor (VEGF)
- tumor growth versus control ([3]; bevacizumab 4 mg/kg i.p., p=0.0424): reduced the growth of the tumor as compared to control
- efficacy at slowing tumor growth in HCT116 (high hypoxia) versus 786O (low hypoxia) tumors [3]: more effective at slowing tumor growth in tumors with high levels of hypoxia
- tumor growth versus control ([3]; lower dose of bevacizumab (1 mg/kg) i.p., p=0.1274): small trend to decreased tumor growth
- tumor burden versus control ([5]; higher dose of bevacizumab (4 mg/kg) i.p., p=0.011): greatest tumor burden
- tumor burden versus control ([5]; low dose bevacizumab (1 mg/kg) i.p., p=0.437): no significant difference in tumor burden
- improvement in median survival [17]: 29%
- progression-free survival [18]: 8.7 months
- progression free survival HR ([19]; bevacizumab vs placebo, both with gemcitabine and erlotinib, P=0.0002): 0.73
- median overall survival ([19]; bevacizumab, gemcitabine and erlotinib arm (306 patients)): 7.1 months
- patients with decreased tumor size [20]: 30%
- increase in progression-free survival time ([20]; interferon-alpha with bevacizumab vs interferon-alpha alone): about 5 months
- median PFS [21]: 10.5 months

Compound: interferon-alpha
- patients with decreased tumor size [20]: 12%
- progression-free survival [15, 23]: 3.1 months
- median overall survival ([15]; arms: temsirolimus alone vs interferon-alpha, P=0.0078): 7.3 months
- survival [16]: 4.2 months
- median OS [22]: 94.9 weeks
